Here are results for one molecule from patent publication US6680342B2, “Methods and compositions for inhibiting the proliferation of prostate cancer cells” (priority 2001, dated 2004).

Series [1] concerns PSA. Nature of the series: Northern blot of PSA mRNA, LNCaP cells. The class given is cell-based, human. As to conditions: in the presence of androgen, 24 hrs. Here is the method:
(§1) The films were autoradiographed at −70° C. overnight.

Series [2] concerns Sp1. Nature of the series: Western blot of Sp1, LNCaP cells. The class given is cell-based, human.
Experimental: (§3) Both cell lines were propagated in 24-well, 60 or 100 mm culture dishes at the desired density in RPMI 1640 (Mediatech, Herndon, Va.) supplemented with 5% fetal calf serum (FCS) (Biofluids, Rockville, Md.) at 37° C. and 5% CO2 until reaching 50-70% confluence.
(§4) LNCaP or LAPC-4 cells were plated in 10 cm dishes at 9×10^5 cells per dish in RPMI 1640 and 5% FCS. […] Cells were harvested at designated times, and the whole cell lysate was prepared according to manufacturer's instructions (Santa Cruz, Santa Cruz, Calif.). […] Protein levels were measured with a BioRad DC protein assay (BioRad, Hercules, Calif.). Protein samples (20 μg) were loaded into precast 4-12% NuPage gels (Novex, San Diego, Calif.), run with MOPS buffer, and transferred onto a nitrocellulose membrane (BioRad) according to the manufacturer's instructions. A Ponceau S staining was performed for total protein staining and visualized with a digital camera. The membranes were blocked overnight at 4° C. in TBST (20 mM Tris-HCl (pH 8.0), 137 mM NaCl, and 0.1% Tween 20) and 5% dry milk. The membranes were washed 3 times for ten min each with TBST. Primary antibody for the androgen receptor (1:2,000 dilution) (Pharmingen, San Diego, Calif.), Sp1 (1:2,000 dilution) (Santa Cruz) or heat shock protein70 (Hsp70) (1:1,000 diultion) (StressGene Biotechnologies, Victoria, B.C.) was incubated at room temperature for 1 hr. […]
The subject of series [3] is heat shock protein70 (Hsp70). Description: Western blot of heat shock protein70, LNCaP cells. It is filed as cell-based, human. (In general: Immunoblotting shows a protein as a band on a membrane.)
Experimental: as §3, §4
Series [4] concerns NKX3.1. Description: Northern blot of NKX3.1 mRNA, LNCaP cells. The class given is cell-based, human. As to conditions: in the presence of androgen, 24 hrs. As for the experimental part:
as §1

In series [5] the test system is hK2. Nature of the series: hK2 protein in spent media, immunometric assay, LAPC-4 cells. The class given is cell-based, human. As to conditions: LAPC-4, 5 days, with or without Mib, normalized.
For series [6], the system named is PSA. Nature of the series: PSA protein in spent media, immunometric assay, LAPC-4 cells. As to conditions: LAPC-4, 5 days, with or without Mib, normalized. The class given is cell-based, human.
For series [7], the system named is PSA. Nature of the series: PSA protein in spent media, immunometric assay, LNCaP cells. The class given is cell-based, human. As to conditions: 5 days, with or without Mib, normalized by MTS. As for the experimental part:
(§2) LNCaP cells were seeded at 2×10^4 cells per well in 24 well plates. […] After a 5 day incubation, the spent media were harvested, and the levels of PSA and hK2 quantified by an immunometric assay as described previously (Hsieh et al., 1997, Cancer Res., 57:2651-6). MTS assays were performed (Promega, Madison, Wis.) as per the manufacturer's instructions. The protein levels of PSA and hK2 were normalized by cell density measurements with the MTS assay.

Series [8] concerns male and female rats. To be noted: approximately 40 to 1900 mg/kg/day; cited from earlier work.
Series [9] concerns ODC. Description: Northern blot of ODC mRNA, LNCaP cells. The class given is cell-based, human. To be noted: in the presence of androgen, 24 hrs. As for the experimental part: as §1
Series [10] concerns hK2. Description: hK2 protein in spent media, immunometric assay, LNCaP cells. The class given is cell-based, human. As to conditions: 5 days, with or without Mib, normalized by MTS. As for the experimental part:
as §2

`O=c1c(O)c(-c2ccc(O)c(O)c2)oc2cc(O)cc(O)c12` [quercetin, Quercetin]: the “PSA mRNA levels” value in series [1] is on record as “greatly reduced”. Also, the Sp1 protein level entry in [2] is listed as “not affected”. The Hsp70 protein level result in series [3] is “not affected”. In series [4], the “NKX3.1 mRNA levels” value is given as “greatly reduced”. For the same molecule, the hK2 protein levels result in series [5] is “inhibits both PSA and hK2 protein levels in a dose-dependent manner”; in series [10], “inhibits both PSA and hK2 protein levels in a dose-dependent manner”. Also, the PSA protein levels result is “inhibits both PSA and hK2 protein levels in a dose-dependent manner” in series [6]; “inhibits both PSA and hK2 protein levels in a dose-dependent manner” in [7]. In [8], the effects on survival result is on record as “no treatment related effects on survival”. Also, the “ODC mRNA levels” value in [9] is “greatly reduced”.
